Measured values: patent publication US12319640B2, “Cyclic diones as herbicidal compounds” (SYNGENTA CROP PROTECTION AG, priority 2019, dated 2025)

Assays:
Assay in all cases: Glasshouse herbicide test, pre- and post-emergence
Format in all cases: in vivo
[1] = tested on: Echinochloa crus-galli (ECHCG); conditions: 250 g/h, evaluated after 13 days, five-point scale; for percentage damage caused to the plant, ECHCG POST: post-emergence; for percentage damage caused to the plant, ECHCG PRE: pre-emergence
Procedure: (§1) Seeds of a variety of test species are sown in standard soil in pots (Lolium perenne (LOLPE), Setaria faberi (SETFA), Alopecurus myosuroides (ALOMY), Echinochloa crus-galli (ECHCG), Avena fatua (AVEFA)). After cultivation for one day (pre-emergence) or after 8 days cultivation (post-emergence) under controlled conditions in a glasshouse (at 24/16° C., day/night; 14 hours light; 65% humidity), the plants are sprayed with an aqueous spray solution derived from the formulation of the technical active ingredient in acetone/water (50:50) solution containing 0.5% Tween 20 (polyoxyethelyene sorbitan monolaurate, CAS RN 9005-64-5). Compounds are applied at 250 g/h. The test plants are then grown in a glasshouse under controlled conditions in a glasshouse (at 24/16° C., day/night; 14 hours light; 65% humidity) and watered twice daily. After 13 days for pre and post-emergence, the test is evaluated for the percentage damage caused to the plant. The biological activities are shown in the following table on a five-point scale (5=80-100%; 4=60-79%; 3=40-59%; 2=20-39%; 1=0-19%).

Setaria faberi (SETFA) = conditions: 250 g/h, evaluated after 13 days, five-point scale; for percentage damage caused to the plant, SETFA POST: post-emergence; for percentage damage caused to the plant, SETFA PRE: pre-emergence
Procedure: as §1

Lolium perenne (LOLPE) = conditions: 250 g/h, evaluated after 13 days, five-point scale; for percentage damage caused to the plant, LOLPE POST: post-emergence; for percentage damage caused to the plant, LOLPE PRE: pre-emergence
Procedure: as §1

Avena fatua (AVEFA) = conditions: 250 g/h, evaluated after 13 days, five-point scale; for percentage damage caused to the plant, AVEFA POST: post-emergence; for percentage damage caused to the plant, AVEFA PRE: pre-emergence
Procedure: as §1

[2] = tested on: Alopecurus myosuroides (ALOMY); conditions: 250 g/h, evaluated after 13 days, five-point scale; for percentage damage caused to the plant, ALOMY POST: post-emergence; for percentage damage caused to the plant, ALOMY PRE: pre-emergence
Procedure: as §1

| Structure (SMILES) | percentage damage caused to the plant, ECHCG POST [1] | percentage damage caused to the plant, ECHCG PRE [1] | percentage damage caused to the plant, SETFA POST (Setaria faberi (SETFA)) | percentage damage caused to the plant, SETFA PRE (Setaria faberi (SETFA)) | percentage damage caused to the plant, LOLPE POST (Lolium perenne (LOLPE)) | percentage damage caused to the plant, LOLPE PRE (Lolium perenne (LOLPE)) | percentage damage caused to the plant, AVEFA POST (Avena fatua (AVEFA)) | percentage damage caused to the plant, AVEFA PRE (Avena fatua (AVEFA)) | percentage damage caused to the plant, ALOMY POST [2] | percentage damage caused to the plant, ALOMY PRE [2] |
| --- | --- | --- | --- | --- | --- | --- | --- | --- | --- | --- |
| CC#Cc1cc(C)c(C2C(=O)CC3(CCC(C(=O)N(C)C)CC3)CC2=O)c(C)c1 (stereo not shown) [Compound 1.001] | 5 (5=80-100%) | 5 (5=80-100%) | 5 (5=80-100%) | 5 (5=80-100%) | 5 (5=80-100%) | 5 (5=80-100%) | 5 (5=80-100%) | 5 (5=80-100%) | 5 (5=80-100%) | 5 (5=80-100%) |
| CC#Cc1cc(C)c(C2C(=O)CC3(CCC(C(=O)NC)CC3)CC2=O)c(C)c1 (stereo not shown) [Compound 1.002, 3-(2,6-dimethyl-4-prop-1-ynyl-phenyl)-N-methyl-2,4-dioxo-spiro[5.5]undecane-9-carboxamide] | 5 (5=80-100%) | 5 (5=80-100%) | 5 (5=80-100%) | 5 (5=80-100%) | 5 (5=80-100%) | 5 (5=80-100%) | 5 (5=80-100%) | 5 (5=80-100%) | 5 (5=80-100%) | 5 (5=80-100%) |
| CC#Cc1cc(C)c(C2C(=O)CC3(CCC(C(=O)NC(=O)c4ccccn4)CC3)CC2=O)c(C)c1 (stereo not shown) [Compound 1.003] | 5 (5=80-100%) | 5 (5=80-100%) | 5 (5=80-100%) | 5 (5=80-100%) | 5 (5=80-100%) | 4 (4=60-79%) | 5 (5=80-100%) | 4 (4=60-79%) | 5 (5=80-100%) | 4 (4=60-79%) |
| CC#Cc1cc(C)c(C2C(=O)CC3(CCC(C(=O)Nc4ccccn4)CC3)CC2=O)c(C)c1 (stereo not shown) [Compound 1.004] | 4 (4=60-79%) | 5 (5=80-100%) | 4 (4=60-79%) | 5 (5=80-100%) | 4 (4=60-79%) | 4 (4=60-79%) | 5 (5=80-100%) | 4 (4=60-79%) | 4 (4=60-79%) | 3 (3=40-59%) |
| CC#Cc1cc(C)c(C2C(=O)CC3(CCC(C(=O)N4CCOCC4=O)CC3)CC2=O)c(C)c1 (stereo not shown) [Compound 1.005] | 5 (5=80-100%) | 5 (5=80-100%) | 5 (5=80-100%) | 5 (5=80-100%) | 5 (5=80-100%) | 5 (5=80-100%) | 5 (5=80-100%) | 4 (4=60-79%) | 4 (4=60-79%) | 3 (3=40-59%) |
| CC#Cc1cc(C)c(C2C(=O)CC3(CCC(C(=O)N4CCS(=O)(=O)CC4)CC3)CC2=O)c(C)c1 (stereo not shown) [Compound 1.007] | 5 (5=80-100%) | 5 (5=80-100%) | 5 (5=80-100%) | 4 (4=60-79%) | 5 (5=80-100%) | 5 (5=80-100%) | 5 (5=80-100%) | 3 (3=40-59%) | 5 (5=80-100%) | 3 (3=40-59%) |
| CC#Cc1cc(C)c(C2C(=O)CC3(CCC(C(=O)N4CCOCC4)CC3)CC2=O)c(C)c1 (stereo not shown) [Compound 1.008] | 5 (5=80-100%) | 5 (5=80-100%) | 4 (4=60-79%) | 5 (5=80-100%) | 5 (5=80-100%) | 5 (5=80-100%) | 5 (5=80-100%) | 3 (3=40-59%) | 5 (5=80-100%) | 4 (4=60-79%) |
